For one assay, the system named is MOLM-13. Nature of the assay: Cell growth inhibition, MOLM-13 leukemia cells (CellTiter-Glo). The class given is cell-based. To be noted: Homo sapiens, MOLM-13, 96 h; 4 days; read-out: IC50 (nM) MOLM-13 Cell Line (CellTiter-Glo assay). The method, boiled down:
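Luminescent ATP-based viability (CellTiter-Glo, 10-20 min at room temperature) in compound-treated MOLM-13 cells; the half-maximal inhibitory concentration was calculated from the readout.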

The next assay addresses T1, recombinant BRD4 BD2 (Homo sapiens, UniProt O60885).
T1 construct: for recombinant BRD4 BD1 and BRD4 BD2 proteins
Nature of the assay: Competitive fluorescence-polarization (FP) binding assay, BRD4 BD2. Also: probe 1.5 nM. Conditions: competitive FP assay; protein 6 nM, probe […]; read-out: IC50 (nM) BRD4 BD2. Summed up: (§1)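 Buffer: 100 mM potassium phosphate, pH 6.5, 0.01% Triton X-100; compounds added in buffer with 40% ethylene glycol to preformed complex of fluorescent probe with BRD4 BD1 (10 nM final) or BD2 (6 nM final). After 30 min at room temperature, polarization read. IC50 from nonlinear fits of competition curves, with Ki.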

For another assay, the system named is MDA-MB-436. The assay can be described thus: Cell growth inhibition, MDA-MB-436 breast cancer cells (WST-8). Type of assay: cell-based. Conditions: Homo sapiens, MDA-MB-436, 96 h; 4 days; read-out: IC50 (nM) MDA-MB-436 Cell Line (WST assay). Summed up:
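IC50 was computed from WST-8-based cell counting in MDA-MB-436 cells, with absorbance read at 450 nm.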

For another assay, the target named is T2, recombinant BRD4 BD1 (Homo sapiens, UniProt O60885).
T2 construct: for recombinant BRD4 BD1 and BRD4 BD2 proteins
Nature of the assay: Competitive fluorescence-polarization (FP) binding assay, BRD4 BD1. Also: probe 1.5 nM. To be noted: competitive FP assay; protein 10 nM, probe […]; read-out: IC50 (nM) BRD4 BD1. The method, boiled down: as §1

The structures appear in SMILES notation.

For the compound `COc1cc2c(cc1-c1c(C)noc1C)[nH]c1nc(C)nc(Nc3nn(C)c4ncccc34)c12` [Cpd. No. 10, 7-(3,5-Dimethylisoxazol-4-yl)-6-methoxy-2-methyl-N-(1-methyl-1H-pyrazolo[3,4-b]pyridin-3-yl)-9H-pyrimido[4,5-b]indol-4-amine], the half-inhibitory concentration (IC50) came to 45.6 nM in the assay on MOLM-13, 43.3 nM at recombinant BRD4 BD2, 138 nM with MDA-MB-436 and 21.5 nM on recombinant BRD4 BD1.

Turning to `COc1cc2c(cc1-c1c(C)noc1C)[nH]c1nc(C)nc(Nc3c(C)c(C4CC4)nn3C)c12` [Cpd. No. 147, N-(3-Cyclopropyl-1,4-dimethyl-1H-pyrazol-5-yl)-7-(3,5-dimethylisoxazol-4-yl)-6-methoxy-2-methyl-9H-pyrimido[4,5-b]indol-4-amine], the IC50 in the assay with MOLM-13 is 201 nM; at recombinant BRD4 BD2 it was 93.7 nM; in the assay on MDA-MB-436 it was 319 nM; on recombinant BRD4 BD1, 59.9 nM.

For `CCn1nccc1Nc1nc(C)nc2[nH]c3cc(-c4c(C)noc4C)c(OC)cc3c12` [Cpd. No. 173, 7-(3,5-dimethylisoxazol-4-yl)-N-(1-ethyl-1H-pyrazol-5-yl)-6-methoxy-2-methyl-9H-pyrimido[4,5-b]indol-4-amine], the IC50 was 121 nM in the assay on MOLM-13, 25.1 nM at recombinant BRD4 BD2, 198 nM in the assay on MDA-MB-436 and 31.7 nM at recombinant BRD4 BD1.

Regarding `COc1cc2c(cc1-c1c(C)noc1C)[nH]c1nc(C)nc(Nc3ccnn3C(C)(C)C)c12` [Cpd. No. 183, N-(1-(tert-butyl)-1H-pyrazol-5-yl)-7-(3,5-dimethylisoxazol-4-yl)-6-methoxy-2-methyl-9H-pyrimido[4,5-b]indol-4-amine], the IC50 in the assay with MOLM-13 was 29.7 nM; at recombinant BRD4 BD2, 6.1 nM; in the assay on MDA-MB-436, 83.7 nM; on recombinant BRD4 BD1 it was 9.6 nM.

With `CCc1nn(C)cc1Nc1nc(C)nc2[nH]c3cc(-c4c(C)noc4C)c(OC)cc3c12` [Cpd. No. 182, 7-(3,5-dimethylisoxazol-4-yl)-N-(3-ethyl-1-methyl-1H-pyrazol-4-yl)-6-methoxy-2-methyl-9H-pyrimido[4,5-b]indol-4-amine], the concentration for half-maximal inhibition (IC50) in the assay on MOLM-13 turned out to be 34.8 nM; on recombinant BRD4 BD2, 23.6 nM; in the assay on MDA-MB-436 it was 98 nM; at recombinant BRD4 BD1, 15.6 nM.

As to `COc1cc2c(cc1-c1c(C)noc1C)[nH]c1nc(C)nc(Nc3nn(C)c4c3CCCC4)c12` [Cpd. No. 124, 7-(3,5-Dimethylisoxazol-4-yl)-6-methoxy-2-methyl-N-(1-methyl-4,5,6,7-tetrahydro-1H-indazol-3-yl)-9H-pyrimido[4,5-b]indol-4-amine], the IC50 with MOLM-13 worked out at 41.9 nM; at recombinant BRD4 BD2, 29.5 nM; in the assay on MDA-MB-436, 58.3 nM; at recombinant BRD4 BD1, 5 nM.

For the compound `COc1cc2c(cc1-c1c(C)noc1C)[nH]c1nc(C)nc(Nc3cccc4cnccc34)c12` [Cpd. No. 221, 7-(3,5-dimethylisoxazol-4-yl)-N-(isoquinolin-5-yl)-6-methoxy-2-methyl-9H-pyrimido[4,5-b]indol-4-amine], the concentration for half-maximal inhibition (IC50) turned out to be 189 nM with MOLM-13, 57 nM on recombinant BRD4 BD2, 209 nM in the assay on MDA-MB-436 and 49 nM on recombinant BRD4 BD1.

On to `COc1cc2c(cc1-c1c(C)noc1C)[nH]c1nc(C)nc(Nc3cc(Cl)ccc3F)c12` [Cpd. No. 224, N-(5-chloro-2-fluorophenyl)-7-(3,5-dimethylisoxazol-4-yl)-6-methoxy-2-methyl-9H-pyrimido[4,5-b]indol-4-amine], for which the IC50 with MOLM-13 was determined as 192 nM; at recombinant BRD4 BD2, 33 nM; in the assay on MDA-MB-436, 740 nM; at recombinant BRD4 BD1, 105 nM.

For `COc1cc2c(cc1-c1c(C)noc1C)[nH]c1nc(C(C)C)nc(Nc3nn(C)c4ccccc34)c12` [Cpd. No. 18, 7-(3,5-Dimethylisoxazol-4-yl)-2-isopropyl-6-methoxy-N-(1-methyl-1H-indazol-3-yl)-9H-pyrimido[4,5-b]indol-4-amine], the IC50 came out at 86.2 nM with MOLM-13, 1160 nM at recombinant BRD4 BD2, 141 nM in the assay on MDA-MB-436 and 211 nM on recombinant BRD4 BD1.

Values taken from US9580430B2, “9H-pyrimido[4,5-B]indoles and related analogs as BET bromodomain inhibitors” (THE REGENTS OF THE UNIVERSITY OF MICHIGAN, priority 2014, dated 2017).
